Laboratory results published in US12006330B2, “Substituted macrocyclic compounds and related methods of treatment” (Alkermes, Inc., priority 2020, dated 2024).

Columns and labels:
MDR1 = experiment: MDCK-MDR1 permeability assay; format: in vitro ADME; settings: dog, MDCK-MDR1, MDCK-MDR1 cells; for efflux ratio at 2 h, 3 μM: Papp B→A divided by Papp A→B, read-out: Efflux ratio (ER); for Papp A→B at 2 h, 3 μM: test compound 3 μM, 2 hours at 37 degrees C, apical to basolateral
Protocol: The bidirectional permeability (Apical to Basal and Basal to Apical directions) of test compounds in MDCK-MIDR1 cells were evaluated using MDCK-MIDR1 cells seeded in Solvo PreadyPort™ MDCK 96-well plate. Once the plate was received from ReadyCell (Barcelona, Spain), it was treated as per PreadyPort™ user's manual.
For the Apical to Basolateral (A→B) permeability, 80 μL of test compound (3 μM) co-dosed with LY (Lucifer Yellow) (100 μM) in HBSS (Hank's Balanced Salt Solution) assay buffer was added to the donor side (A) while 250 μL of HBSS buffer was added to the receiver side (B). For the Basolateral to Apical (B→A) permeability, 255 μL of test compound (3 μM) in HBSS assay buffer was added to the donor side (B) while 75 μL of HBSS buffer containing LY (100 μM) was added to the receiver side (A).
The plate was placed in an incubator set at 37 degrees C. After 10 minutes of pre-warming, 5 μL aliquot was taken from donor compartment and set aside as the dosing solution. The MDCK-MDR1 incubation plate was placed back into the incubator for 2 hours of incubation at 37 degrees C. After 2 hours of incubation, 25 μL and 5 μL aliquots were removed from the receiver and donor sides, respectively. To the 5 μL aliquots taken from the donor sides (before and after a 2-hour incubation) were diluted with 20 μL of the HBSS buffer. All samples were mixed with 150 μL with acetonitrile containing internal standard (IS) and 200 μL water, and analyzed by LC-MS/MS.
The apparent permeability (Papp) was calculated using the following formula: Papp=dQ/dt×1/A×C0 where: • dQ/dt: amount of translocated material over incubation time (nmol/s) • A: area of insert (0.14 cm^2 for PreadyPort™ MDR1-96) • C0: initial concentration of product applied in apical (A→B) or basal (B→A) compartment (nmol/mL)
The efflux ratio (ER) was measured by dividing the Papp (basolateral to apical direction) by Papp (apical to basolateral direction). It is a general measure of the involvement of active processes. An ER>2 is considered positive for active transport.
Percent recovery was measured using the following equation:
[formula] where: • VR: Volume of the receiver compartment (mL) • VD: Volume of the donor compartment (mL) • CN: Concentration of dosing solution (μM) collected after 10 minutes of incubation • CR^final: Receiver concentration at the end of the incubation (μM) • CD^final: Donor concentration at the end of the incubation (μM)
The data reported in Table 3 were obtained according to the MDCK-MDR1 permeability assay described above.

[1] = Hepatocytes stability assay (human hepatocytes); format: in vitro ADME; settings: both sexes, human, cryopreserved hepatocytes, cryopreserved human hepatocytes (pool of 50 mixed gender); 1 μM test compound; 1×10^6 cell/mL; 37 degrees C; read-out: CLint (μL/min/million cells)
Protocol: (§1) In vitro metabolic stability was assessed using cryopreserved hepatocytes from male Sprague Dawley rats and a pool of 50 mixed gender humans (BioIVT, Baltimore, MD). The incubation mixtures were prepared by mixing 250 μL of pre-warmed KHB (Krebs-Henseleit buffer) containing 2×10^6 cell/mL of hepatocytes with 250 μL of pre-warmed KHB buffer containing 2 μM of test compounds in a 48-well plate, giving a final concentration of 1 μM test compound (0.1% DMSO) and 1×10^6 cell/mL of hepatocytes. The reaction mixture was incubated at 37 degrees C. A 50 μL aliquot of incubation mixture was taken at time points (0, 15, 30, 60, 120 and 240 minutes) and transferred into a 96-well plate containing 300 μL ice-cold acetonitrile (containing 30 ng/mL of labetalol and 10 ng/mL of Naltrexone-d3 as internal standards) and immediately placed in ice to terminate the reaction. Samples were centrifuged, and supernatants were transferred into 96-well plates for liquid chromatography with tandem mass spectrometry (LC-MS/MS) analysis to monitor the depletion of the test compound.
(§2) Data was calculated as percent remaining by assuming zero-minute time point peak area ratio (analyte/IS) as 100% and dividing remaining time point peak area ratios by zero-minute time point peak area ratio. Data were fitted to a first-order decay model to determine half-life. From a plot of log (ln) peak area against time, the slope of the line was determined. Subsequently, half-life (T1/2) and intrinsic clearance (CLint) were calculated using the equations below: Elimination rate constant (k)=(−slope) Half-life (T1/2) min=0.693/k Intrinsic Clearance (CLint) (mL/min/million cells)=(V×0.693)/T1/2 V=incubation volume mL/number of cells The in vitro T1/2 was converted to in vitro intrinsic clearance (CLint,hep) in units of mL/min/kg using the formula shown below:
(§3) [formula] The in vitro intrinsic clearance (CLint,hep) was scaled to in vivo hepatic clearance (CL,hep) using the following equation which was adapted from a well-stirred model.
(§4) [formula] where Q is the liver blood flow and fu is the fraction unbound (assumed to be unity in this case). All parameters used in the calculation are shown below (Table 4).
(§5) The extraction ratio (ER) was calculated by dividing the hepatic clearance of a compound to the liver blood flow. The data reported in Table 5 were obtained according to the human hepatocytes stability assay described above.

human hepatocytes = experiment: Hepatocytes stability assay (human hepatocytes); format: in vitro ADME; settings: human hepatocytes; scaled hepatic clearance divided by liver blood flow (well-stirred model, fu assumed unity)
Protocol: as §1, §2, §3, §4, §5

[2] = target: T1, human orexin-2 receptor (OX2R) (Homo sapiens, UniProt O43614); experiment: Human OX2R IP1 assay; format: cell-based; settings: T-Rex CHO cells stably overexpressing human OX2R; IP1 accumulation; 1 hr at 37 degrees C; mean EC50
T1 construct: expressed in transfected cells
T1 sequence (O43614 1-444): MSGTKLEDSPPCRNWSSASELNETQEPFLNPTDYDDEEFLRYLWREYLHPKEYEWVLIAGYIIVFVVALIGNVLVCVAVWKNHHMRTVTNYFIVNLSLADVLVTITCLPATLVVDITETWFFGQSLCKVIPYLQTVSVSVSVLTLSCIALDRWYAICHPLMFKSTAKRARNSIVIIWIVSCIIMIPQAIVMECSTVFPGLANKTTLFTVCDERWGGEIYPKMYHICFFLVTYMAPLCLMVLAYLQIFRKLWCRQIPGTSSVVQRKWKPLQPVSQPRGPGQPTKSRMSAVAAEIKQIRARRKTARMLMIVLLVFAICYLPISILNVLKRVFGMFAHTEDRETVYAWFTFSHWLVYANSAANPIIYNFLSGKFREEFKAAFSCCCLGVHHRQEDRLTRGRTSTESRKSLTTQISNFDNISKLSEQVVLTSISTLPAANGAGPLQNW
Protocol: T-Rex CHO cells stably overexpressing the human orexin-2 receptor (OX2R) were induced overnight with 1 μg/mL of doxycycline in a T225 flask. 24 hours post induction, cells were lifted with accutase and plated into a 384-well proxy plate at 30,000 cells/well. Cells were then treated with different test compounds in 1× stimulation buffer containing 10 mM Hepes, 1 mM CaCl2), 0.5 mM MgCl2, 4.2 mM KCl, 146 mM NaCl, 5.5 mM glucose, and 50 mM LiCl, pH 7.4, for 1 hr at 37 degrees C. Following incubation, the reaction was terminated by the addition of detection mix, which is composed of IP1-d2 and anti-IP1-cryptate diluted in lysis buffer as well as 1× stimulation buffer. The plates were allowed to incubate for 1 hour at room temperature and were then read in the EnVision® multimode plate reader, measuring inositol phosphate levels.
Cisbio IP1 is a cell-based functional assay quantifying the accumulation of inositol monophosphate (IP), a metabolite released as a result of orexin 2 receptor activation through the phospholipase C-Gq signaling pathway. This is a competitive immunoassay in which the IP1 produced by the cells upon receptor activation competes with the IP1 analog coupled to the d2 fluorophore (acceptor) for binding to an anti-IP1 monoclonal antibody labeled with Eu cryptate (donor). The measured HTRF-FRET based signal is inversely proportional to the IP1 concentration produced.
The EC50 values reported in Table 2 were obtained according to the human OX2R IP1 assay described above. Data are the mean EC50 values S.E.M. Reference Compound A is methyl (2R,3S)-3-((methylsulfonyl)amino)-2-(((cis-4-phenylcyclohexyl)oxy)methyl)-piperidine-1-carboxylate (Example 5 of PCT publication No. WO2017/135306). Reference Compound B is N-((2S,3S)-1-(2-hydroxy-2-methylpropanoyl)-2-((2,3′,5′-trifluorobiphenyl-3-yl)methyl)pyrrolidin-3-yl)methanesulfonamide (Example 483 of PCT publication No. WO2019/027058).

Compound | efflux ratio at 2 h, 3 μM (MDR1) | Papp A→B at 2 h, 3 μM (MDR1) | hepatocyte CLint at 1 μM [1] | Extraction Ratio (ER) (human hepatocytes) | EC50 [2]
Cc1cccc2c1C1CCC(CC1)OC[C@H]1[C@@H](NS(=O)(=O)C3CC3)CCCN1C(=O)CO2 (stereo in doubt) [Compound 4] | 31 | 0.66 ×10⁻⁶ cm/s | 29 µL/min/1e6 cells | 0.81 | –
C=CS(=O)(=O)N[C@H]1CCCN2C(=O)COc3ccccc3C3CCC(CC3)OC[C@@H]12 (stereo in doubt) [Compound 5] | 29 | 1.3 ×10⁻⁶ cm/s | 22 µL/min/1e6 cells | 0.77 | –
O=C1COc2ccccc2C2CCC(CC2)OC[C@H]2[C@@H](NS(=O)(=O)CF)CCCN12 (stereo in doubt) [Compound 6] | 35 | 1 ×10⁻⁶ cm/s | 18 µL/min/1e6 cells | 0.73 | –
O=C1COc2ccccc2C2CCC(CC2)OC[C@H]2[C@@H](NS(=O)(=O)C(F)F)CCCN12 (stereo in doubt) [Compound 7] | 22 | 1.4 ×10⁻⁶ cm/s | 19 µL/min/1e6 cells | 0.74 | –
CC1(S(=O)(=O)N[C@H]2CCCN3C(=O)COc4ccccc4C4CCC(CC4)OC[C@@H]23)CC1 (stereo in doubt) [Compound 8] | 3.6 | 1.8 ×10⁻⁶ cm/s | 31 µL/min/1e6 cells | 0.82 | –
Cc1cccc2c1C1CCC(CC1)OC[C@H]1[C@@H](NS(=O)(=O)C(C)C)CCCN1C(=O)CO2 (stereo in doubt) [Compound 9] | 50 | 0.87 ×10⁻⁶ cm/s | 32 µL/min/1e6 cells | 0.83 | –
Cc1ccc2c(c1)C1CCC(CC1)OC[C@H]1[C@@H](NS(=O)(=O)C3CC3)CCCN1C(=O)CO2 (stereo in doubt) [Compound 13] | 72 | 0.35 ×10⁻⁶ cm/s | 6.3 µL/min/1e6 cells | 0.48 | –
O=C1COc2ncccc2C2CCC(CC2)OC[C@H]2[C@@H](NS(=O)(=O)C3CC3)CCCN12 (stereo in doubt) [Compound 14] | > 100 | 0.3 ×10⁻⁶ cm/s | 20 µL/min/1e6 cells | 0.75 | –
O=C1COc2ccc(Cl)cc2C2CCC(CC2)OC[C@H]2[C@@H](NS(=O)(=O)C3CC3)CCCN12 (stereo in doubt) [Compound 16] | > 100 | 0.2 ×10⁻⁶ cm/s | 6.1 µL/min/1e6 cells | 0.47 | –

The next lines start with the values.

efflux ratio at 2 h, 3 μM (MDR1) | Papp A→B at 2 h, 3 μM (MDR1) | hepatocyte CLint at 1 μM [1] | Extraction Ratio (ER) (human hepatocytes) | EC50 [2] | Compound
19 | 0.83 ×10⁻⁶ cm/s | 5.8 µL/min/1e6 cells | 0.46 | – | Cc1ccc2c(c1)C1CCC(CC1)OC[C@H]1[C@@H](NS(=O)(=O)C(C)C)CCCN1C(=O)CO2 (stereo in doubt) [Compound 18]
– | – | – | – | < 0.01 µM | CC(C)S(=O)(=O)N[C@H]1CCN2C(=O)COc3ncccc3[C@H]3CC[C@H](CC3)OC[C@@H]12 (stereo in doubt) [Compound 101]
– | – | – | – | < 0.01 µM | O=C1COc2ccccc2[C@H]2CC[C@H](CC2)OC[C@H]2[C@@H](NS(=O)(=O)C3CC3)CCN12 (stereo in doubt) [Compound 105]
– | – | – | – | < 0.01 µM | CC(C)S(=O)(=O)N[C@H]1CCN2C(=O)COc3ccccc3[C@H]3CC[C@H](CC3)OC[C@@H]12 (stereo in doubt) [Compound 106]
– | – | – | – | < 0.01 µM | O=C1COc2ncccc2[C@H]2CC[C@H](CC2)OC[C@H]2[C@@H](NS(=O)(=O)C3CC3)CCN12 (stereo in doubt) [Compound 107]
– | – | – | – | < 0.01 µM | O=C1COc2ncccc2[C@H]2CC[C@H](CC2)OCC2[C@@H](NS(=O)(=O)C(F)(F)F)CCN12 (stereo in doubt) [Compound 108]
– | – | – | – | < 0.01 µM | Cc1ccnc2c1[C@H]1CC[C@H](CC1)OC[C@H]1[C@@H](NS(=O)(=O)C3COC3)CCN1C(=O)CO2 (stereo in doubt) [Compound 109]
– | – | – | – | < 0.01 µM | O=C1COc2ccccc2[C@H]2CC[C@H](CC2)OC[C@H]2[C@@H](NS(=O)(=O)C3COC3)CCN12 (stereo in doubt) [Compound 110]
– | – | – | – | 0.01 to 1 µM | C[C@H]1C[C@H](NS(C)(=O)=O)C2CO[C@H]3CC[C@H](CC3)c3ccccc3OCC(=O)N21 (stereo in doubt) [Compound 111]
